Reference: patent publication EP0312346B1, “E. coli sequence specific acid protease” (GENENCOR INTERNATIONAL, INC., priority 1987, dated 1989)

Tested on: acid protease of E.coli
Experiment: Inhibition of the protease cleaving activity (lysis at pH 5, 26 Kd CCP fragment on Western blot)
Type: biochemical
Text: E.coli expressing CCP was lysed at pH 5 in the presence of increasing concentrations of poly-L-lysine or poly-L-arginine. Any protease activity was evidenced by the appearance of the 26 Kd fragment on Western blot. […] No 26 Kd fragment appeared; DTT, PMSF and EDTA had no inhibitory effect on the lysine-lysine lysine-arginine, arginine-lysine or arginine-arginine cleaving activity of the protease.

[1] = 1 mM inhibitor, E.coli expressing CCP lysed at pH 5, no 26 Kd fragment appeared on Western blot

poly-L-arginine
inhibition of the protease activity [1]: completely inhibited
inhibition of the protease activity (no concentration stated): inhibited

poly-L-lysine
inhibition of the protease activity [1]: completely inhibited
inhibition of the protease activity (no concentration stated): inhibited
